The text below walks through data of patent US6534520B2, “Antiviral compounds” (priority 1997, dated 2003).

The test system of data set [1] is Respiratory Syncitial Virus (RSV). Description: Antiviral activity against RSV (CPE inhibition / neutral red). In kind it is cell-based.
A further data set has as its system PBMCs. Description: Cytotoxicity in PBMCs (anti-HIV tests). The data set is classed as cell-based. The conditions noted are these: for HIVTEKI (PBMCs) CC50: HIVTEKI columns.
Data set [2] relates to uninfected cells.
Another data set has as its system HSV-2. Description: Antiviral activity against HSV-2 (CPE inhibition / neutral red). The data set is classed as cell-based, herpes simplex virus type 2.
Data set [3] relates to uninfected cells. Description: Cytotoxicity run with the Parainfluenza test. Conditions: cytotoxicity, Parainfluenza test.
In the next data set the test system is Adenovirus. Description: Antiviral activity against Adenovirus (CPE inhibition / neutral red). The data set is classed as cell-based.
The next data set deals with Influenza B. Description: microbe, parasite or virus in culture. The data set is classed as cell-based.
The subject of data set [4] is uninfected cells. The source holds these as a separate data set.
Data set [5] relates to uninfected cells. Description: Cytotoxicity run with the Influenza A test. In kind it is cell-based. The protocol:
(§1) Methods For Assay Of Cytotoxicity
(§2) In the CPE inhibition test, two wells of uninfected cells treated with each concentration of test Compound are run in parallel with the infected, treated wells. At the time CPE is determined microscopically, the toxicity control cells are also examined microscopically for any changes in cell appearance compared to normal control cells run in the same plate. These changes may be enlargement, granularity, cells with ragged edges, a filmy appearance, rounding, detachment from the surface of the well, or other changes. These changes are given a designation of T (100% toxic), PVH (partially toxic-very heavy-80%), PH (partially toxic-heavy-60%), P (partially toxic-40%), PS (partially toxic-slight-20%), or 0 (no toxicity-0%), conforming to the degree of cytotoxicity seen.
(§3) In the neutral red dye uptake phase of the antiviral test described above, the two toxicity control wells also receive neutral red and the degree of color intensity is determined spectrophotometrically. A neutral red CC50 (NRCC50) is subsequently determined.
(§4) C. ^3H Thymidine Uptake Assay
(§5) Flat bottom 96 well plates are plated with 5X10E3 Vero-34 cells/well and 1X10E4 Hs68 or Wi-38 cells/well respectively and incubated overnight at 37° C. and 5% CO2/air. After incubation, the supernatant medium is removed and replaced with test Compound dilutions in 2% DMEM (150 ul). The cells are then incubated 48 hours in a 5% CO2 incubator at 37° C.
(§6) 50 μl/well of 10 uCi/ml solution of [3H]-methyl thymidine (specific activity of approx. 2Ci/mmol) is added to the culture medium and incubated overnight (18 hours) in a 5% CO2 incubator at 37° C.
(§7) Cells are then collected onto a fiberglass filter (Printed Filtermat A 1450-421 Wallac) with a Tomtec cell harvester. Suspended cells are collected directly onto filter while for adherent cells, the medium is first removed, then the cells washed with PBS and trypsinized for 2-3 minutes (50 μl trypsin/well) before collecting.
(§8) Filters are dried for 1 hour at 37-40° C. and then placed into bags (1450-microbeta #1450-432 Wallac) with 4.5 ml of Betascint and counts obtained with Microbeta 1450 Wallac (protocol 1).
(§9) The percent of cell proliferation is determined by comparison to the control (no test Compound) and thereby establishing 50% inhibitory concentration is established.

The next data set concerns Rhinovirus (RV). Description: Antiviral activity against Rhinovirus (CPE inhibition / neutral red). In kind it is cell-based. The conditions noted are these: Rhinovirus.
The next data set has as its system HSV-1. Description: Antiviral activity against HSV-1 (CPE inhibition / neutral red). In kind it is cell-based, herpes simplex virus type 1.
Data set [6] relates to uninfected cells. The source holds these as a separate data set.
A further data set concerns Influenza A. Description: microbe, parasite or virus in culture. The data set is classed as cell-based.
The test system of data set [7] is uninfected cells. The source holds these as a separate data set.
A further data set relates to HIVROJO. Description: Anti-HIV activity against HIVROJO in PBMCs. In kind it is cell-based. Conditions: HIVROJO, PBMCs.
Data set [8] concerns uninfected cells. Description: Cytotoxicity run with the Adenovirus test. The conditions noted are these: cytotoxicity, Adenovirus test.
Data set [9] deals with uninfected cells. Description: Cytotoxicity run with the Influenza B test. The data set is classed as cell-based. The protocol:
as §1, §2, §3, §4, §5, §6, §7, §8, §9

The test system of the next data set is Parainfluenza. Description: Antiviral activity against Parainfluenza (CPE inhibition / neutral red). In kind it is cell-based.
Data set [10] can be described thus: Cytotoxicity run with the HSV-2 test.
Data set [11] can be described thus: Cytotoxicity in PBMCs (anti-HIV tests). The data set is classed as cell-based. The conditions noted are these: human; PBMCs, HIVROJO.
Data set [12] in a line: Cytotoxicity run with the Parainfluenza test.
Data set [13] is described as follows: Cytotoxicity run with the RSV test.
The nature of data set [14]: Cytotoxicity run with the HSV-1 test.
A further data set deals with HIVTEKI. Description: Anti-HIV activity against HIVTEKI in PBMCs.
Data set [15] can be described thus: Cytotoxicity run with the Influenza A test. The data set is classed as cell-based. The procedure:
as §1, §2, §3, §4, §5, §6, §7, §8, §9

A short description of data set [16]: Cytotoxicity run with the Adenovirus test.
Data set [17] in a line: Cytotoxicity run with the Influenza B test. The data set is classed as cell-based. The protocol: as §1, §2, §3, §4, §5, §6, §7, §8, §9
Data set [18] can be described thus: Cytotoxicity run with the Rhinovirus test.
Data set [19] concerns uninfected cells. The source holds these as a separate data set.

The structures appear in SMILES notation. Values after ≈ are worked out from the molar mass of the structure shown. Where two headings read alike, the source gives them in different places.

Turning to `O=C(NCCc1c[nH]c2ccccc12)C1=Cc2ccncc2CC1` [#68], the “RSV IC50” value in [1] was 60 mg/L. Moreover, the “HIVROJO (PBMCs) CC50” value in the data set with PBMCs came out at 7.1 mg/L. In the data set with uninfected cells [2], this compound came in with an RV CC50 of 10 mg/L. Besides, the “HSV-2 IC50” value with HSV-2 turned out to be 0.96 mg/L. This compound returned a PARAINFLUENZA CC50 in the data set on uninfected cells [3] of 25 mg/L. Moreover, the ADENOVIRUS IC50 in the data set on Adenovirus was determined as 20 mg/L. The compound also displayed an INFLUENZA B IC50 with Influenza B of 7.2 mg/L. Also, the “HSV-1 CC50” value in the data set on uninfected cells [4] was determined as 12 mg/L. Also, in the data set on uninfected cells [5], the “INFLUENZA A CC50” value worked out at 2.1 mg/L. In the data set with Rhinovirus (RV), this compound displayed an RV IC50 of 2 mg/L. For the same compound, the “HSV-1 IC50” value in the data set on HSV-1 was found to be 0.72 mg/L. The “RSV CC50” value with uninfected cells [6] came out at 20 mg/L. Besides, in the data set with Influenza A, the “INFLUENZA A IC50” value is 2.1 mg/L. Besides, in the data set with uninfected cells [7], the “HSV-2 CC50” value is 14 mg/L. In the data set with HIVROJO, the “HIVROJO (PBMCs) IC50” value is 2.9 mg/L. Besides, the ADENOVIRUS CC50 in the data set with uninfected cells [8] stood at 30 mg/L. This compound also registered an INFLUENZA B CC50 with uninfected cells [9] of 11 mg/L. Further, the PARAINFLUENZA IC50 in the data set on Parainfluenza came to 50 mg/L.

Consider `C[C@H](NC(=O)c1nc2ccncc2s1)c1ccccc1` [#62, Thiazolo[5,4-c]pyridine-2-carboxylic acid(1(S)-phenyl-ethyl)amide], for which the “HCMV IC50” value in the data set with HCMV was “˜1 μg/ml”.

Usually IC50 stands for the midpoint of a concentration-inhibition curve. As usually defined, the CC50 is the concentration that lowers cell viability or growth by half. High values mean better tolerance by the cells, low ones harm at low concentration. Consider `O=C(NCCc1ccccc1)C1=Cc2ccncc2CC1` [#67, 7,8-Dihydro-isoquinoline-6-carboxylic acid phenethyl-amide], for which the IC50 in [1] (human respiratory syncytial virus, read-out: RSV IC50) was over 100 mg/L; in the data set with HSV-2 (Human alphaherpesvirus 2) it was 86 mg/L (≈ 309 µM); with Adenovirus (unidentified adenovirus, read-out: ADENOVIRUS IC50) it was over 100 mg/L; in the data set on Influenza B (Influenza B virus) it was over 100 mg/L; with HIVTEKI (Human immunodeficiency virus 1, PBMC, read-out: HIVTEKI (PBMCs) IC50) it was 41.2 mg/L (≈ 148 µM); in the data set on Rhinovirus (RV) (Enterovirus, read-out: RV IC50), over 20 mg/L. In addition, the IC50 is 16 mg/L (≈ 57.5 µM) in the data set with HSV-1 (Human alphaherpesvirus 1, read-out: HSV-1 IC50); over 100 mg/L in the data set with Influenza A (Influenza A virus, read-out: INFLUENZA A IC50); 8.6 mg/L (≈ 30.9 µM) in the data set on HIVROJO (Human immunodeficiency virus 1, PBMC, read-out: HIVROJO (PBMCs) IC50); 100 mg/L (≈ 359 µM) in the data set with Parainfluenza. For the same compound, the CC50 in [10] is over 100 mg/L; in data set [11], 74.7 mg/L (≈ 268 µM); in data set [12], 30 mg/L (≈ 108 µM); in data set [13], 30 mg/L (≈ 108 µM); in data set [14], over 100 mg/L; in [15], over 100 mg/L. Also, the CC50 in data set [16] is 30 mg/L (≈ 108 µM); in data set [17] it was over 100 mg/L; in [18], 40 mg/L (≈ 144 µM).

`CC(C)Oc1ccccc1NC(=O)Nc1ccc2cnccc2n1` [#46, 1-(2-iso-propoxy-phenyl)-3-[1,6]naphthyridin-2-yl-urea;]: the “RSV IC50” value in [1] is over 30 mg/L. Moreover, in the data set with PBMCs, the “HIVROJO (PBMCs) CC50” value is over 100 mg/L and the “HIVTEKI (PBMCs) CC50” value is over 100 mg/L. In addition, the RV CC50 in the data set with uninfected cells [2] is over 30 mg/L. In addition, the ADENOVIRUS IC50 in the data set with Adenovirus is over 30 mg/L. Moreover, the INFLUENZA B IC50 in the data set with Influenza B is over 32 mg/L. In addition, the “HIVTEKI (PBMCs) IC50” value in the data set on HIVTEKI (HIVTEKI, PBMCs) amounted to 4.3 mg/L. In the data set on uninfected cells [4], the “HSV-1 CC50” value is over 100 mg/L. For the same compound, in the data set with uninfected cells [5], the “INFLUENZA A CC50” value was determined as 19 mg/L. Moreover, in the data set on Rhinovirus (RV), the RV IC50 is 1 mg/L. Also, in the data set on HSV-1, the “HSV-1 IC50” value is over 100 mg/L. This compound also yielded a PARAINFLUENZA CC50 in the data set with uninfected cells [19] of 30 mg/L. The “RSV CC50” value with uninfected cells [6] was determined as 30 mg/L. For the same compound, the “INFLUENZA A IC50” value in the data set on Influenza A is over 32 mg/L. The “HIVROJO (PBMCs) IC50” value in the data set on HIVROJO turned out to be 3.2 mg/L. The compound also gave an ADENOVIRUS CC50 in the data set with uninfected cells [8] of over 30 mg/L. This compound also came in with an INFLUENZA B CC50 with uninfected cells [9] of over 22 mg/L. The compound further gave a PARAINFLUENZA IC50 with Parainfluenza of over 30 mg/L.

`COc1ccccc1CNC(=O)c1nc2ccncc2s1` [#59, Thiazolo[5,4-c]pyridine-2-carboxylic acid-2-methoxybenzylamide]: the “HCMV IC50” value with HCMV was “˜10 μg/ml”.

With `COc1ccccc1CNC(=O)C1=Cc2ccncc2CC1` [#32, 7,8-dihydroisoquinolin-6-carboxylic acid 2′-methoxybenzylamide], the “RSV IC50” value in data set [1] was 50 mg/L. Also, in the data set on PBMCs, the “HIVROJO (PBMCs) CC50” value is over 64 mg/L and the “HIVTEKI (PBMCs) CC50” value was over 64 mg/L. Also, the RV CC50 in the data set on uninfected cells [2] was determined as 25 mg/L. Moreover, the “HSV-2 IC50” value in the data set on HSV-2 is 15 mg/L. In the data set on Adenovirus, this compound returned an ADENOVIRUS IC50 of over 100 mg/L. This compound came in with an INFLUENZA B IC50 with Influenza B of 56 mg/L. The “HSV-1 CC50” value with uninfected cells [4] is 14 mg/L. The “INFLUENZA A CC50” value in the data set with uninfected cells [5] worked out at 67 mg/L. In the data set on Rhinovirus (RV), the RV IC50 was 10 mg/L. Further, the “HSV-1 IC50” value with HSV-1 amounted to 5.5 mg/L. Moreover, the PARAINFLUENZA CC50 in the data set with uninfected cells [19] is 20 mg/L. The “RSV CC50” value with uninfected cells [6] is 30 mg/L. Besides, the “INFLUENZA A IC50” value in the data set on Influenza A was determined as 60 mg/L. Besides, in the data set with uninfected cells [7], the “HSV-2 CC50” value was found to be 29.0 mg/L. Moreover, the “HIVROJO (PBMCs) IC50” value with HIVROJO was found to be 45 mg/L. In the data set on uninfected cells [8], this compound displayed an ADENOVIRUS CC50 of 80 mg/L.
